Reference: patent US10519323B2, “Antimicrobial coatings” (AGENCY FOR SCIENCE, TECHNOLOGY AND RESEARCH, priority 2015, dated 2019)
Converted amounts (≈) assume the structure as drawn.

Legend:
[1] = system: E. coli; experiment: Minimal inhibitory concentration (MIC) of powders against E. coli; assay type: cell-based, Escherichia coli; details: * = tested chemical formed precipitate in TSB medium
Experimental: (§1) The minimal inhibitory concentration (MIC) of ZIF-L powders synthesized from a solution with a 2-Me-Im:Zn ratio of 7:1 was tested against E. coli, S. aureus and C. albicans. The same test was conducted for ZIF-8 powders, 2-Me-Im alone and Zn(NO3)2.4H2O alone. The MIC values in mg/mL are tabulated below.

[2] = system: S. aureus; experiment: Minimal inhibitory concentration (MIC) of powders against S. aureus; assay type: cell-based, Staphylococcus aureus; details: * = tested chemical formed precipitate in TSB medium
Experimental: as §1

[3] = system: C. albicans; experiment: Minimal inhibitory concentration (MIC) of powders against C. albicans; assay type: cell-based, Candida albicans
Experimental: as §1

| SMILES | MIC ([1]; Escherichia coli) | MIC ([2]; Staphylococcus aureus) | MIC ([3]; Candida albicans) | MIC, E. coli [1] | MIC, S. aureus [2] | MIC, C. albicans [3] |
| --- | --- | --- | --- | --- | --- | --- |
| Cc1ncc[nH]1 [2-Me-Im, 2-methylimidazole] | 12.5 mg/mL (≈ 152 mM) | 25 mg/mL (≈ 304 mM) | 6.2 mg/mL (≈ 75.5 mM) |  |  |  |
| O.O.O.O.O=[N+]([O-])[O-].O=[N+]([O-])[O-].[Zn+2] [Zn(NO3)2•4H2O, Zn(NO3)2.4H2O] |  |  |  | 3.1* mg/mL | >50* mg/mL | 0.8 mg/mL |
